This assay concerns the target T1, WT/R232 STING protein (Homo sapiens, UniProt Q86WV6, H232R).
T1 construct: host or cells: HEK293T
Nature of the assay: Luciferase reporter assay in HEK293T-hSTING-Luciferase cells, WT/R232. The conditions noted are these: 20 hr stimulation, read-out: R232 Activity (EC50 range). The format is cell-based. From the text: • a) Stable STING expressing cells—Stable HEK293T STING-expressing cell lines were generated using plasmids purchased from Invivogen, Calif., USA, that contain STING cDNA cloned into the pUNO-1 vector under hEF1-HTLV promoter and containing the Blasticidin selection cassette. The plasmids hSTING(R232), hSTING(H232), hSTING(HAQ) were directly procured from Invivogen while hSTING (AQ) and hSTING (Q) were derived from hSTING(HAQ) and hSTING (R232) plasmids respectively by using a PCR based site directed mutagenesis method. These vectors were individually transfected into HEK293T cells using Lipofectamine (Invitrogen) and transfected cells were selected under Blasticidin selection. These transfected cells were further subjected to clonal selection using the limiting dilution method to obtain clonally pure populations of HEK cells transfected with each of the above mentioned human STING variants. Only those clones were selected in which ligand independent activation of STING was minimal. • b) Stable Luciferase reporter gene expressing cells—Stable HEK293T Luciferase reporter gene expressing cell lines were generated using pCDNA4 plasmids under an IRF-inducible promoter. This promoter is comprised of five tandem interferon-stimulated response elements (ISRE) fused to an ISG54 minimal promoter. This vector was transfected into HEK293T cells using Lipofectamine (Invitrogen) and transfected cells were selected under Zeocin selection. These transfected cells were further subjected to clonal selection using the limiting dilution method to obtain clonally pure populations of HEK cells transfected the Luciferase reporter construct. Only those clones were selected in which ligand independent induction of luciferase was minimal.
5×10^5 clonally selected HEK293T-hSTING-Luciferase cells were seeded in 384-well plates in growth medium and stimulated with novel compounds. After 20 hr of stimulation supernatant were removed and secretary reporter gene activity were measured using the Quanti-Luc detection system (Invivogen) on a Spectramax i3X luminometer.
All compounds were first tested in a primary screen using WT/R232 STING protein to obtain a ‘fold-induction’ over baseline levels of protein activity.

SMILES strings stand for the structures. pEC50: −log10 of the molar value. A value given as a limit tells only on which side of the number the result lay.

T1 sequence (Q86WV6 whole entry H232R): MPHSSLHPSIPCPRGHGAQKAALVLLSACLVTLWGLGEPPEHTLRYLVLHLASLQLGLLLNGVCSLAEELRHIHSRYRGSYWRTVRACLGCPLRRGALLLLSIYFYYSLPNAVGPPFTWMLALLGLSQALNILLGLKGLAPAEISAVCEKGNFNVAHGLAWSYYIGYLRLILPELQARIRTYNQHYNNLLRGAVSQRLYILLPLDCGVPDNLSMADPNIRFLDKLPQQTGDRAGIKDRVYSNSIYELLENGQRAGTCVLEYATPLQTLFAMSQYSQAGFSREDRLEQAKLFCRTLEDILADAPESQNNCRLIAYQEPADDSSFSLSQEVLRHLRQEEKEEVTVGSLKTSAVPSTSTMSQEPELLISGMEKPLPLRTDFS

Consider `O=C(NCc1ccco1)c1ccc2c(c1)N(Cc1ccccc1Cl)C(=O)CS2` [Example 1, 4-(2-chlorobenzyl)-N-(furan-2-ylmethyl)-3-oxo-3,4-dihydro-2H-benzo[b-1,4]thiazine-6-carboxamide], for which the pEC50 was less than 5.00.
For the molecule `O=C(CN1C(=O)CSc2ccc(C(=O)NCc3ccco3)cc21)c1ccccc1` [Example 2, N-(furan-2-ylmethyl)-3-oxo-4-(2-oxo-2-phenylethyl)-3,4-dihydro-2H-benzo[b][1,4] thiazine-6-carboxamide], the negative logarithm of the EC50 (pEC50) was less than 5.00.
For `O=C(NCc1ccco1)c1ccc2c(c1)N(CC(=O)N1CCc3ccccc31)C(=O)CS2` [Example 3, N-(furan-2-ylmethyl)-4-(2-(indolin-1-yl)-2-oxoethyl)-3-oxo-3,4-dihyrdo-2H-benzo[b-1,4]thiazine-6-carboxamide], the pEC50 was less than 5.00.
Consider `O=C(CN1C(=O)CSc2ccc(C(=O)NCc3ccco3)cc21)Nc1ccncc1` [Example 4, N-(furan-2-ylmethyl)-3-oxo-4-(2-oxo-2-(pyridin-4-ylamino)ethyl)-3,4-dihydro-2H-benzo[b-1,4]-thiazine-6-carboxamide], for which the negative-log EC50 (pEC50) is less than 5.00.
`O=C(CN1C(=O)CSc2ccc(C(=O)NCc3ccco3)cc21)Nc1ccccc1` [Example 5, N-(furan-2-ylmethyl)-3-oxo-4-(2-oxo-2-(phenylamino)ethyl)-3,4-dihydro-2H-benzo[b-1,4]thiazine-6-carboxamide]: the pEC50 was less than 5.00.
Take `O=C(NCc1ccco1)c1ccc2c(c1)N(Cc1nc3ccccc3s1)C(=O)CS2` [Example 6, 4-(benzo[d]thiazol-2-ylmethyl)-N-(furan-2-ylmethyl)-3-oxo-3,4-dihydro-2H-benzo[b-1,4]thiazine-6-carboxamide]: the negative logarithm of the EC50 (pEC50) is less than 5.00.
With `O=C(NCc1ccco1)c1ccc2c(c1)N(Cc1nc3ccccc3o1)C(=O)CS2` [Example 7], the pEC50 was less than 5.00.
The value for `O=C(NCc1ccco1)c1ccc2c(c1)N(CCc1ccccc1)C(=O)CS2` [Example 8, N-(furan-2-ylmethyl)-3-oxo-4-phenethyl-3,4-dihydro-2H-benzo[b-1,4]thiazine-6-carboxamide] was less than 5.00; that for `Nc1ncc(NC(=O)CN2C(=O)CSc3ccc(C(=O)NCc4ccco4)cc32)cn1` [Example 9, 4-(2-((2-amino-pyrimidin-5-yl)amino)-2-oxoethyl)-N-(furan-2-ylmethyl)-3-oxo-3,4-dihydro-2H-benzo[b-1,4]thiazine-6-carboxamide] was less than 5.00; that for `Cn1cccc1CNC(=O)c1ccc2c(c1)N(Cc1ccccc1)C(=O)CS2` [Example 10, 4-benzyl-N-((1-methyl-1H-pyrrol-2-yl)methyl)-3-oxo-3,4-dihydro-2H-benzo[b-1,4]thiazine-6-carboxamide] was less than 5.00.
The value for `O=C(NCc1ccco1)c1ccc2c(c1)N(Cc1cccc(Cl)c1Cl)C(=O)CS2` [Example 11, 4-(2,3-dichloro-benzyl)-N-(furan-2-ylmethyl)-3-oxo-3,4-dihydro-2H-benzo[b-1,4]thiazine-6-carboxamide] was 5.00 to 6.00; that for `Cc1cccc(CN2C(=O)CSc3ccc(C(=O)NCc4ccco4)cc32)c1C` [Example 12, 4-(2,3-dimethyl-benzyl)-N-(furan-2-ylmethyl)-3-oxo-3,4-dihydro-2H-benzo[b-1,4]thiazine-6-caroxamide] was 5.00 to 6.00; that for `Cc1cccc(C)c1CN1C(=O)CSc2ccc(C(=O)NCc3ccco3)cc21` [Example 13, 4-(2,6-dimethyl-benzyl)-N-(furan-2-ylmethyl)-3-oxo-3,4-dihydro-2H-benzo[b-1,4]thiazine-6-carboxamide] was 5.00 to 6.00.
Turning to `O=C(NCc1ccco1)c1ccc2c(c1)N(Cc1cccc3ccccc13)C(=O)CS2` [Example 14, N-(furan-2-ylmethyl)-4-(naphthalen-1-ylmethyl)-3-oxo-3,4-dihydro-2H-benzo[b-1,4]thiazine-6-carboxamide], the negative logarithm of the EC50 (pEC50) is 5.00 to 6.00.
In the case of `O=C(NCc1ccco1)c1ccc2c(c1)N(CC1CCCCC1)C(=O)CS2` [Example 15, 4-(cyclohexyl-methyl)-N-(furan-2-ylmethyl)-3-oxo-3,4-dihydro-2H-benzo[b-1,4]thiazine-6-carboxamide], the pEC50 is less than 5.00.
With `O=C(NCC1CCCCC1)c1ccc2c(c1)N(Cc1ccccc1F)C(=O)CS2` [Example 16, N-(cyclo-hexylmethyl)-4-(2-fluoro-benzyl)-3-oxo-3,4-dihydro-2H-benzo[b-1,4]thiazine-6-carboxamide] the figure was 5.00 to 6.00; with `O=C(NCc1ccco1)c1ccc2c(c1)N(CC(O)c1ccccc1)C(=O)CS2` (stereo not shown) [Example 17, N-(furan-2-ylmethyl)-4-(2-hydroxy-2-phenylethyl)-3-oxo-3,4-dihydro-2H-benzo[b-1,4]thiazine-6-carboxamide], less than 5.00; with `C[C@H](NC(=O)c1ccc2c(c1)N(Cc1ccccc1F)C(=O)CS2)C1CCCCC1` [Example 18, (S)-N-(1-cyclohexyl-ethyl)-4-(2-fluorobenzyl)-3-oxo-3,4-dihydro-2H-benzo[b-1,4]thiazine-6-carboxamide], less than 5.00.
On to `C[C@@H](NC(=O)c1ccc2c(c1)N(Cc1ccccc1F)C(=O)CS2)C1CCCCC1` [Example 19, (R)-N-(1-cyclohexyl-ethyl)-4-(2-flurobenzyl)-3-oxo-3,4-dihydro-2H-benzo[b-1,4]thiazine-6-carboxamide], for which the negative-log EC50 (pEC50) is less than 5.00.
Consider `O=C(NCC1CC1)c1ccc2c(c1)N(Cc1ccccc1F)C(=O)CS2` [Example 20, N-(cyclopropyl-methyl)-4-(2-fluorobenzyl)-3-oxo-3,4-dihydro-2H-benzo[b-1,4]thiazine-6-carboxamide], for which the pEC50 was less than 5.00.
`O=C(NCc1c(F)cccc1Cl)c1ccc2c(c1)N(Cc1c(F)cccc1Cl)C(=O)CS2` [Example 21, N,4-bis(2-chloro-6-fluorobenzyl)-3-oxo-3,4-dihydro-2H-benzo[b-1,4]thiazine-carboxamide]: the negative-log EC50 (pEC50) was 5.00 to 6.00.
Turning to `CC1(C)C2CC(CNC(=O)c3ccc4c(c3)N(Cc3ccccc3F)C(=O)CS4)CC1C2` (stereo not shown) [Example 22, N-((6,6-dimethyl-bicyclo[3.1.1]heptan-3-yl)methyl)-4-(2-fluorobenzyl)-3-oxo-3,4-dihydro-2H-benzo[b-1,4]thiazine 6-carboxamide], the negative-log EC50 (pEC50) is less than 5.00.
The value for `CC(NC(=O)c1ccc2c(c1)N(Cc1ccccc1F)C(=O)CS2)C12C[C@H]3C[C@@H](C1)C[C@@H](C2)C3` (stereo partly shown) [Example 23, N-(1-((3r,5r,7r)-adamantan-1-yl)ethyl)-4-(2-fluorobenzyl)-3-oxo-3,4-dihydro-2H-benzo[b-1,4]thiazine-6-carboxamide] was less than 5.00.
The value for `O=C(NCC12C[C@H]3C[C@@H](C1)C[C@@H](C2)C3)c1ccc2c(c1)N(Cc1ccccc1F)C(=O)CS2` [Example 24, N-((3r,5r,7r)-adamantan-1-ylmethyl)-4-(2-fluorobenzyl)-3-oxo-3,4-dihydro-2H-benzo[b-1,4]thiazine-6-carboxamide] was less than 5.00; that for `Cc1cccc(CN2C(=O)CSc3ccc(C(=O)NCC4CCCCC4)cc32)c1C` [Example 25, N-(cyclohexyl-methyl)-4-(2,3-dimethyl-benzyl)-3-oxo-3,4-dihydro-2H-benzo[b-1,4]thiazine-6-carboxamide] was less than 5.00; that for `O=C(NCc1cccc2ccccc12)c1ccc2c(c1)N(Cc1ccccc1F)C(=O)CS2` [Example 26, 4-(2-fluorobenzyl)-N-(naphthalen-1-ylmethyl)-3-oxo-3,4-dihydro-2H-benzo[b-1,4]thiazine-6-carboxamide] was less than 5.00.
In the case of `O=C(NCc1ccco1)c1ccc2c(c1)N(Cc1cccnc1)C(=O)CS2` [Example 27, N-(furan-2-ylmethyl)-3-oxo-4-(pyridin-3-ylmethyl)-3,4-dihydro-2H-benzo[b-1,4]thiazine-6-carboxamide], the pEC50 is less than 5.00.
As to `O=C(NCc1ccco1)c1ccc2c(c1)N(Cc1ccncc1)C(=O)CS2` [Example 28, N-(furan-2-ylmethyl)-3-oxo-4-(pyridin-4-ylmethyl)-3,4-dihydro-2H-benzo[b-1,4]thiazine-6-carboxamide], the pEC50 is less than 5.00.
As to `CC(c1ccccc1)N1C(=O)CSc2ccc(C(=O)NCc3ccco3)cc21` (stereo not shown) [Example 29, N-(furan-2-ylmethyl)-3-oxo-4-(1-phenylethyl)-3,4-dihydro-2H-benzo[b-1,4]thiazine-6-carboxamide], the pEC50 was less than 5.00.
With `O=C(NCc1ccco1)c1ccc2c(c1)N(Cc1ccccc1C(F)(F)F)C(=O)CS2` [Example 30, N-(furan-2-ylmethyl)-3-oxo-4-(2-(trifluoro-methyl)benzyl)-3,4-dihydro-2H-benzo[b-1,4]thiazine-6-carboxamide] the figure was less than 5.00.
On to `O=C(NCc1ccc2ccccc2c1)c1ccc2c(c1)N(Cc1c(F)cccc1Cl)C(=O)CS2` [Example 32, 4-(2-chloro-6-fluorobenzyl)-N-(naphthalen-2-ylmethyl)-3-oxo-3,4-dihydro-2H-benzo[b-1,4]thiazine 6-carboxamide], for which the pEC50 is 5.00 to 6.00.

One may read the pEC50 as −log10 of the EC50, conventionally taken in molar units.
